This note sets out measurements from patent US20240245679A1, “AGENT FOR TREATING INFECTIOUS DISEASES AGAINST MUTANT VIRUSES OF NOVEL CORONAVIRUS” (FUJIFILM TOYAMA CHEMICAL CO., LTD., priority 2021, published 2024).

Common to all, as to assay: microbe, parasite or virus in culture
Format in all cases: cell-based, SARS-COV-2

Assay [1] relates to SARS-2 WA1/2020. The following applies: Severe acute respiratory syndrome coronavirus 2, Vero C1008; 72 hours.
The test system of assay [2] is hCoV-19/Japan/TY7-503/2021 (P.1 line). The note with it: Severe acute respiratory syndrome coronavirus 2, Vero 76, read-out: EC90 value (90% effective concentration).
Assay [3] deals with hCoV-19/Japan/TY11-330-P1/2021 (B.1.617.1 line). The note with it: Severe acute respiratory syndrome coronavirus 2, VeroE6/TMPRSS2; 40 hours.
Assay [4] concerns SARS-2-9017 (delta). The following applies: Severe acute respiratory syndrome coronavirus 2, Vero C1008; 72 hours.
Assay [5] has as its system hCoV-19/England/204820464/2020 (B.1.1.7 line). The note with it: Severe acute respiratory syndrome coronavirus 2, Vero 76, read-out: EC90 value (90% effective concentration).
For assay [6], the system named is SARS-2 Omicron. The note with it: Severe acute respiratory syndrome coronavirus 2, Vero C1008; 72 hours.
Assay [7] relates to USA_WA1/2020 (A line). The note with it: Severe acute respiratory syndrome coronavirus 2, Vero 76, read-out: EC90 value (90% effective concentration).
The subject of assay [8] is hCoV-19/Japan/TY7-501/2021 (P.1 line). The following applies: Severe acute respiratory syndrome coronavirus 2, VeroE6/TMPRSS2; 40 hours.
The test system of assay [9] is hCoV-19/Japan/QK002/2020 (B.1.1.7 line). The following applies: Severe acute respiratory syndrome coronavirus 2, VeroE6/TMPRSS2; 40 hours.
The test system of assay [10] is hCoV-19/Japan/TY2-312-P1/2020 (B.1.1 line).
Assay [11] relates to hCoV-19/Japan/TY8-612/2021 (B.1.351 line). The note with it: Severe acute respiratory syndrome coronavirus 2, VeroE6/TMPRSS2; 40 hours.
Assay [12] deals with hCoV-19/Japan/TY11-927-P1/2021 (B.1.617 line). The note with it: Severe acute respiratory syndrome coronavirus 2, VeroE6/TMPRSS2; 40 hours.

Molecules are shown by their SMILES.

`NC(=O)c1nc(F)cnc1O` [Compound A, 6-fluoro-3-hydroxy-2-pyrazinecarboxamide]: the EC90 in assay [1] is 125 to 250 µM; in [2] it was 190 µM; in [3] it was 491 µM; in assay [4], 125 to 250 µM; in assay [5] it was 83 µM; in [6], 62.5 to 125 µM. For the same molecule, the EC90 amounted to 68 µM in assay [7]; 306 µM in [8]; 359 µM in assay [9]; 466 µM in assay [10] (40 hours); 302 µM in [10] (Severe acute respiratory syndrome coronavirus 2, VeroE6/TMPRSS2, 40 h); 223 µM in assay [11]. Also, the EC90 in assay [12] is 294 µM.
